Tests used:
Test in all cases: relative viability (nuclei count vs DMSO), 5 days (fraction); higher = more cells survive
BX 795 + Phenformin = compound: O=C(NCCCNc1nc(Nc2cccc(NC(=O)N3CCCC3)c2)ncc1I)c1cccs1 [BX 795] + N=C(N)NC(=N)NCCc1ccccc1 [Phenformin] (partner 250 µM)
How it was run: (§1)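 Lung cancer cell lines were seeded in 1536-well plates and dosed by pin tool the next day, with either a single drug or a fixed anchor-drug dose combined with five library-drug doses (not always all listed) spaced in √10 steps. Five days later, one step fixed the cells and stained their nuclei (final 0.05% Triton X-100, 1% formaldehyde, 1 ug/ml Hoechst), and nuclei were counted on 4× images. Relative viability is the nuclei count in treated wells divided by the count in vehicle wells, and each value is the median of duplicate plates.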

BX 795 + Alpelisib = compound: O=C(NCCCNc1nc(Nc2cccc(NC(=O)N3CCCC3)c2)ncc1I)c1cccs1 [BX 795] + Cc1nc(NC(=O)N2CCC[C@H]2C(N)=O)sc1-c1ccnc(C(C)(C)C(F)(F)F)c1 [Alpelisib] (partner 2 µM)
How it was run: as §1

BX 795 + Tozasertib = compound: O=C(NCCCNc1nc(Nc2cccc(NC(=O)N3CCCC3)c2)ncc1I)c1cccs1 [BX 795] + Cc1cc(Nc2cc(N3CCN(C)CC3)nc(Sc3ccc(NC(=O)C4CC4)cc3)n2)n[nH]1 [Tozasertib] (partner 0.1 µM)
How it was run: as §1

BX 795 + Olaparib = compound: O=C(NCCCNc1nc(Nc2cccc(NC(=O)N3CCCC3)c2)ncc1I)c1cccs1 [BX 795] + O=C(c1cc(Cc2n[nH]c(=O)c3ccccc23)ccc1F)N1CCN(C(=O)C2CC2)CC1 [Olaparib] (partner 8 µM)
How it was run: as §1

BX 795 + Trametinib = compound: O=C(NCCCNc1nc(Nc2cccc(NC(=O)N3CCCC3)c2)ncc1I)c1cccs1 [BX 795] + CC(=O)Nc1cccc(-n2c(=O)n(C3CC3)c(=O)c3c(Nc4ccc(I)cc4F)n(C)c(=O)c(C)c32)c1 [Trametinib] (partner 0.02 µM)
How it was run: as §1

| Cell Line | relative viability (BX 795 + Phenformin; first compound 0.04 µM) | relative viability (BX 795 + Phenformin; first compound 0.1265 µM) | relative viability (BX 795 + Phenformin; first compound 0.4 µM) | relative viability (BX 795 + Phenformin; first compound 1.265 µM) | relative viability (BX 795 + Alpelisib; first compound 0.04 µM) | relative viability (BX 795 + Alpelisib; first compound 0.1265 µM) | relative viability (BX 795 + Alpelisib; first compound 0.4 µM) | relative viability (BX 795 + Alpelisib; first compound 1.265 µM) | relative viability (BX 795 + Tozasertib; first compound 0.04 µM) | relative viability (BX 795 + Tozasertib; first compound 0.1265 µM) | relative viability (BX 795 + Tozasertib; first compound 0.4 µM) | relative viability (BX 795 + Tozasertib; first compound 1.265 µM) | relative viability (BX 795 + Olaparib; first compound 0.04 µM) | relative viability (BX 795 + Olaparib; first compound 0.1265 µM) | relative viability (BX 795 + Olaparib; first compound 0.4 µM) | relative viability (BX 795 + Olaparib; first compound 1.265 µM) | relative viability (BX 795 + Trametinib; first compound 0.04 µM) | relative viability (BX 795 + Trametinib; first compound 0.1265 µM) | relative viability (BX 795 + Trametinib; first compound 0.4 µM) | relative viability (BX 795 + Trametinib; first compound 1.265 µM) |
| --- | --- | --- | --- | --- | --- | --- | --- | --- | --- | --- | --- | --- | --- | --- | --- | --- | --- | --- | --- | --- |
| NCI-H2087 | 0.547 | 0.545 | 0.563 | 0.411 | 1.08 | 1.18 | 1.29 | 0.752 | 0.266 | 0.293 | 0.307 | 0.183 | 0.833 | 0.761 | 0.781 | 0.448 | 0.235 | 0.163 | 0.242 | 0.221 |
| NCI-H838 | 0.494 | 0.538 | 0.425 | 0.214 | 0.944 | 1.03 | 0.995 | 0.412 | 0.236 | 0.303 | 0.272 | 0.22 | 0.853 | 0.757 | 0.643 | 0.248 | 0.5 | 0.473 | 0.397 | 0.302 |
| NCI-H23 | 0.803 | 0.825 | 0.794 | 0.782 | 0.659 | 0.737 | 0.743 | 0.526 | 0.327 | 0.639 | 0.314 | 0.234 | 0.335 | 0.308 | 0.247 | 0.225 | 0.341 | 0.338 | 0.368 | 0.312 |
| NCI-H1915 | 0.388 | 0.389 | 0.38 | 0.301 | 1.11 | 1.08 | 1.14 | 0.928 | 0.473 | 0.413 | 0.405 | 0.241 | 0.297 | 0.26 | 0.217 | 0.242 | 0.315 | 0.271 | 0.304 | 0.265 |
| HOP-62 | 0.711 | 0.744 | 0.789 | 0.667 | 0.901 | 0.643 | 1.24 | 1 | 0.381 | 0.441 | 0.361 | 0.275 | 0.419 | 0.265 | 0.266 | 0.605 | 0.374 | 0.369 | 0.365 | 0.317 |
| PC-14 | 0.533 | 0.488 | 0.633 | 0.289 | 0.955 | 0.939 | 0.918 | 0.813 | 0.619 | 0.595 | 0.47 | 0.427 | 0.241 | 0.298 | 0.139 | 0.236 | 0.754 | 0.751 | 0.815 | 0.325 |
| EMC-BAC-2 | 0.473 | 0.489 | 0.469 | 0.301 | 0.766 | 0.795 | 0.715 | 0.464 | 0.277 | 0.362 | 0.258 | 0.175 | 0.563 | 0.369 | 0.494 | 0.323 | 0.943 | 0.921 | 0.868 | 0.749 |
| NCI-H596 | 0.681 | 0.802 | 0.805 | 0.887 | 0.508 | 0.483 | 0.546 | 0.363 | 0.963 | 0.906 | 1.03 | 0.699 | 0.729 | 0.673 | 0.632 | 0.766 | 0.807 | 0.757 | 0.932 | 0.776 |
| NCI-H650 | 0.467 | 0.425 | 0.5 | 0.408 | 1.09 | 1.07 | 1.02 | 0.7 | 0.864 | 0.769 | 0.583 | 0.488 | 0.451 | 0.367 | 0.412 | 0.259 | 1.05 | 0.999 | 0.986 | 0.928 |

From the supplement of paper PMC10307832
